Measured values published in ChEMBL document CHEMBL1201862, “PubChem BioAssay data set” (2004).
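Cells were grown in 96-well plates and exposed to each compound for 48 hours at five concentrations; endpoints were interpolated linearly between bracketing concentrations, or set to the highest concentration if not reached. The concentration for 50% growth inhibition is given as GI50.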 Calls of active or inactive are those of the source. Cut-off read from the data, not from the text of the source: active = GI50 up to about 1.1 µM and inactive = higher.

Tests used:
Assay in all cases: NCI anticancer screen, dose series, 48 h
[1] = test system: HCT-15
[2] = test system: SF-268
[3] = test system: SF-295
[4] = test system: OVCAR-8
[5] = test system: CCRF-CEM
[6] = test system: UACC-257
[7] = test system: HCT-116
[8] = test system: HT-29
[9] = test system: SK-OV-3
[10] = test system: KM-20L2
[11] = test system: 786-0
[12] = test system: LOX IMVI
[13] = test system: UO-31
[14] = test system: EKVX
[15] = test system: HOP-62
[16] = test system: RXF 393
[17] = test system: NCI-H226
[18] = test system: OVCAR-5

Row | SMILES | GI50 [1] | GI50 [2] | GI50 [3] | GI50 [4] | GI50 [5] | GI50 [6] | GI50 [7] | GI50 [8] | GI50 [9] | GI50 [10] | GI50 [11] | GI50 [12] | GI50 [13] | GI50 [14] | GI50 [15] | GI50 [16] | GI50 [17] | GI50 [18]
1 | CC(=O)Nc1ccc(/C=C/C(=O)c2sc(-n3nc(-c4ccccc4)cc3-c3ccccc3)nc2C)cc1 | > 10 µM | > 10 µM (inactive) | > 10 µM (inactive) | > 10 µM (inactive) | > 10 µM (inactive) | 80.9 µM (inactive) | > 10 µM (inactive) | 84.7 µM (inactive) | > 10 µM (inactive) | > 10 µM (inactive) | > 10 µM (inactive) | > 10 µM (inactive) | > 10 µM (inactive) | 8.99 µM (inactive) | > 10 µM (inactive) | > 10 µM (inactive) | > 10 µM (inactive) | > 10 µM (inactive)
2 | Cn1nc(-c2ccccc2)c2c(/C=C/c3ccccc3)onc2c1=O | > 100 µM | 43.9 µM (inactive) | 38.9 µM (inactive) | 33.7 µM (inactive) | > 100 µM (inactive) | > 100 µM (inactive) | > 100 µM (inactive) | > 100 µM (inactive) | 43.8 µM (inactive) | > 100 µM (inactive) | 33 µM (inactive) | > 100 µM (inactive) | 6.82 µM (inactive) | 67.1 µM (inactive) | 41.8 µM (inactive) | 46.1 µM (inactive) | > 100 µM (inactive) | > 100 µM (inactive)
3 | OCC1CC2C=CCC(C2)C1 (stereo not drawn) | – | > 100 µM (inactive) | > 100 µM (inactive) | > 100 µM (inactive) | > 100 µM (inactive) | > 100 µM (inactive) | > 100 µM (inactive) | > 100 µM (inactive) | > 100 µM (inactive) | > 100 µM (inactive) | > 100 µM (inactive) | > 100 µM (inactive) | > 100 µM (inactive) | > 100 µM (inactive) | > 100 µM (inactive) | > 100 µM (inactive) | > 100 µM (inactive) | > 100 µM (inactive)
4 | N#CC12CCC(O)C(CC1)C2=O (stereo not drawn) | > 100 µM | > 100 µM (inactive) | > 100 µM (inactive) | > 100 µM (inactive) | > 100 µM (inactive) | > 100 µM (inactive) | 73.1 µM (inactive) | > 100 µM (inactive) | > 100 µM (inactive) | > 100 µM (inactive) | > 100 µM (inactive) | 21.5 µM (inactive) | > 100 µM (inactive) | > 100 µM (inactive) | > 100 µM (inactive) | > 100 µM (inactive) | > 100 µM (inactive) | > 100 µM (inactive)
5 | CCCCc1c2c(nc3c1CCc1cc4c(nc1-3)-c1nc3c(c(CCCC)c1CC4)CCC/C3=C\c1ccccc1)/C(=C/c1ccccc1)CCC2 | > 100 µM | > 100 µM (inactive) | 78.9 µM (inactive) | > 100 µM (inactive) | 48.6 µM (inactive) | > 100 µM (inactive) | 65.3 µM (inactive) | 85.3 µM (inactive) | 36.2 µM (inactive) | > 100 µM (inactive) | 25.2 µM (inactive) | > 100 µM (inactive) | > 100 µM (inactive) | > 100 µM (inactive) | 36.9 µM (inactive) | 23.3 µM (inactive) | > 100 µM (inactive) | > 100 µM (inactive)
6 | COc1cc(C)c(C)c(OC(=O)c2c(C)c(C)c(OC)c(C)c2OC)c1C | 3.68 µM | 11.8 µM (inactive) | 3.92 µM (inactive) | 19.5 µM (inactive) | 13.2 µM (inactive) | 17.8 µM (inactive) | 4.1 µM (inactive) | 3.85 µM (inactive) | 7.19 µM (inactive) | 4.17 µM (inactive) | 12.3 µM (inactive) | 4.75 µM (inactive) | 32.4 µM (inactive) | 15.3 µM (inactive) | 15 µM (inactive) | 13 µM (inactive) | 15.7 µM (inactive) | 28.8 µM (inactive)
7 | Cc1c(Cl)ccc2c1NC(=O)C2(O)CC(=O)c1ccc(Cl)cc1 (stereo not drawn) | 28.2 µM | > 70.1 µM (inactive) | 24.8 µM (inactive) | 34.9 µM (inactive) | 14.5 µM (inactive) | 23.7 µM (inactive) | 27.5 µM (inactive) | 35 µM (inactive) | > 100 µM (inactive) | > 100 µM (inactive) | 47.1 µM (inactive) | 19.7 µM (inactive) | > 100 µM (inactive) | > 55.8 µM (inactive) | 97.3 µM (inactive) | 31.2 µM (inactive) | > 55.2 µM (inactive) | > 100 µM (inactive)
8 | CCNC(=O)COc1ccc(Br)cc1Br | > 100 µM | > 100 µM (inactive) | > 100 µM (inactive) | – | > 100 µM (inactive) | > 100 µM (inactive) | > 100 µM (inactive) | > 100 µM (inactive) | > 100 µM (inactive) | > 100 µM (inactive) | > 100 µM (inactive) | > 100 µM (inactive) | > 100 µM (inactive) | 1.98 µM (inactive) | > 100 µM (inactive) | > 100 µM (inactive) | > 100 µM (inactive) | > 100 µM (inactive)
9 | CC(C)N1C(C)[C@@H](c2ccccc2)O[P@@]1(=O)CC1=CCCCC1 (stereo partly drawn) | > 100 µM | > 100 µM (inactive) | 57 µM (inactive) | > 100 µM (inactive) | 48.5 µM (inactive) | > 100 µM (inactive) | 90.2 µM (inactive) | > 100 µM (inactive) | > 100 µM (inactive) | > 100 µM (inactive) | > 100 µM (inactive) | > 100 µM (inactive) | > 100 µM (inactive) | > 100 µM (inactive) | > 100 µM (inactive) | 68.7 µM (inactive) | > 100 µM (inactive) | > 100 µM (inactive)
10 | C[C@]12CCC[C@H](Cl)C1(O)C[C@H](C(=O)O)CC2 (stereo partly drawn) | > 100 µM | > 100 µM (inactive) | > 100 µM (inactive) | > 100 µM (inactive) | > 100 µM (inactive) | > 100 µM (inactive) | > 100 µM (inactive) | > 100 µM (inactive) | > 100 µM (inactive) | > 100 µM (inactive) | > 100 µM (inactive) | > 100 µM (inactive) | > 100 µM (inactive) | > 100 µM (inactive) | > 100 µM (inactive) | > 100 µM (inactive) | > 100 µM (inactive) | > 100 µM (inactive)
11 | NC(CCC(=O)Nc1ccc(O)cc1)C(=O)O (stereo not drawn) | > 100 µM | > 100 µM (inactive) | – | > 100 µM (inactive) | > 100 µM (inactive) | > 100 µM (inactive) | > 100 µM (inactive) | > 100 µM (inactive) | > 100 µM (inactive) | > 100 µM (inactive) | > 100 µM (inactive) | > 100 µM (inactive) | > 100 µM (inactive) | > 100 µM (inactive) | > 100 µM (inactive) | > 100 µM (inactive) | > 100 µM (inactive) | > 100 µM (inactive)
12 | Nc1ccc(N)c2c1C(=O)c1c(N)ccc(N)c1C2=O | > 66.5 µM | 45.7 µM (inactive) | 70 µM (inactive) | 58.9 µM (inactive) | 23.8 µM (inactive) | > 87.1 µM (inactive) | > 73.3 µM (inactive) | > 100 µM (inactive) | > 74.5 µM (inactive) | > 100 µM (inactive) | 36.9 µM (inactive) | > 31.6 µM (inactive) | 41.8 µM (inactive) | > 64.9 µM (inactive) | 78.2 µM (inactive) | 35 µM (inactive) | 14.6 µM (inactive) | > 100 µM (inactive)
